Measured values as given in patent US20100048545A1, “Compounds and Compositions for Use in the Prevention and Treatment of Disorders of Fat Metabolism and Obesity” (INNODIA INC., priority 2006, published 2010).

Columns and labels:
[1] = test system: Wistar rat model of diet-induced obesity; assay: Food consumption, weight gain and plasma triglycerides in Wistar rat model of diet-induced obesity, 28 days; type: in vivo, Wistar rats; conditions: for triglycerides plasma levels: 28 days
Source text: A total of 60 animals were used in the study. The animals were distributed into 6 groups; 1 group was fed standard chow, 1 group was fed a high fat, high sucrose (HFHS) diet with 28 days treatment, 1 untreated control group was fed a HFHS diet, and 1 untreated group was fed a HFHS diet, but with caloric intake restricted to match the caloric intake of the 4-OH treated animals (pair-fed animals). A fifth group was fed a high fat, high sucrose (HFHS) diet with 28 days treatment and received an acute oral administration of 4-OH just prior to experimentation on Day 29 of the study, and a sixth group was fed a HFHS diet, but with caloric intake restricted to match the caloric intake of the 4-OH treated animals receiving an acute oral administration of 4-OH on Day 29 of the study (pair-fed animals). Each group was composed of 10 animals. […] Body weights were measured once weekly from week 1 to week 4 of the study. For the four weeks of treatment, the test article 4-OH was dissolved in reverse osmosis water. 4-OH aliquoted and kept at 4° C. […] Untreated animals received water twice daily.

[2] = test system: AMPK-ACC; assay: Phosphorylation level of AMPK-ACC in the hypothalamus of HFHS fed rats (Western blot, anti-pACC); type: in vivo; conditions: 100 mg/kg BID for 2 days, overnight fasted, dosed one hour before terminal procedure, vs control
Source text: The AMPK pathway is known to regulate food intake in the hypothalamus. In low energy state as in a food deprivation situation, AMPK phosphorylates and in this way inactivates acetyl CoA carboxylase (ACC). Phosphorylation of ACC thus reduces its ability to catalyse the production of malonyl-CoA which is thought to be implicated in the […] of food consumption (.Hu, Z., Dai, Y., Prentki, M., Chohnan, S, and Lane, D. (2005) J. Biol. Chem. 280: 39681-39683).
To investigate whether 4-OH can alter activity of the AMPK/ACC in the hypothalamus, rats were treated BID with 100 mg/kg of 4-OH or water (control group) for 2 days. Each group was composed of four animals. All rats (controls and 4-OH treated) were fasted overnight before experimentation. On day 29, rats from each respective group were treated one hour before the terminal procedure with their appropriate solution (water for control and 4-OH for chronically 4-OH treated rats). After decapitation, the hypothalamus were isolated and snap frozen in liquid nitrogen. The hypothalamus was then powdered with liquid nitrogen and then solubilized in lysis buffer. Western blot was performed on the hypothalamus extract after resolution of proteins onto a 7.5% polyacrylamide SDS gel and transfer onto a nitrocellulose membrane. […]

[3] = test system: Diet Induced Obesity (DIO)-Mice; type: in vivo
Protocol: A total of 40 animals were used in the study. The animals were distributed into 5 groups (4 treated, 1 control group, all on high fat diet). Each group was composed of 8 animals.
4-OH was aliquoted and kept at 4° C. […] Mice from groups 4 and 5 were treated twice daily with 50 and 100 mg/kg of compound 65a. All groups were treated by oral gavage. Treatment commenced on Day 0 and ended on Day 7 (FIG. 37A). Body weights were measured daily.

[4] = test system: Agouti mice; assay: Weight gain and food consumption in Agouti mice, 21 days; type: in vivo; conditions: 50 or 100 mg/kg orally twice daily
Protocol: Agouti mice, which are obese, diabetic and leptin resistant, were treated orally twice daily with 50 or 100 mg/kg of 4-[…] for 21 consecutive days. Body weight and food consumption were measured daily.

[5] = test system: diet induced obese (DIO) animals; assay: Fixed dose of 4-hydroxyisoleucine in diet induced obese (DIO) animals, 21 days; type: in vivo, C57BL/6 mice; conditions: for Significance vs controls (P; body weight and body weight gain): 2 way ANOVA, Bonferroni
Protocol: C57BL/6 mice were fed a high fat diet (60% fat) for 6 weeks. […] This regime was continued for the remaining 21 day period and the dose given was not adjusted as the mice lost body weight. This method of dosing was designed to mimic the human situation when the quantity of drug given is not adjusted with progressive body weight loss. […] Statistical analysis of the data was performed using a 2 way ANOVA followed by Bonferroni comparisons. Food intake was measured daily and then combined over a 7 day period to calculate total consumption during each week of drug administration.

[6] = test system: dietary obese rat model; assay: Energy balance (VO2, respiratory quotient) in dietary obese rat model, prevention and reversal studies; type: in vivo, male Wistar rats
Protocol: The effect of 4-OH on energy balance was assessed in the dietary obese rat model. In these studies, male Wistar rats were administered a high fat/high sucrose diet (65.4% fat) and treated chronically with 4-OH. Each study consisted of 4 groups of animals. The groups studied were normal chow fed rats, rats fed a high fat/high sucrose diet and rats fed a high fat high sucrose diet and orally administered 4-OH at 100 mg/kg twice per day. These three groups had access to food ad libitum throughout the study. A fourth group fed the same number of Kcal (or similar energy intake) as the 4-OH group was also included to investigate drug effects that may occur in addition to changes in food intake. Two studies were performed: one to determine whether 4-OH could prevent the development of obesity (prevention study) and the other to determine whether 4-OH could reverse established obesity (reversal study). In the prevention study, male Wistar rats were administered the high fat/high sucrose diet for 5 weeks. During the first week of diet administration, the rats were adapted to receiving increasing doses of 4-OH. In the reversal of obesity study, the animals were first made obese by feeding the high fat/high sucrose diet for 28 days. This feeding regime continued for the duration of the study. After the period of obesity induction, the rats were also adapted to receiving increasing doses of 4-OH during a one week period. After the adaptation period, 4-OH was orally administered at a dose of 100 mg/kg twice per day for the following 4 week period in both treatment protocols. The ability of 4-OH to influence energy expenditure was determined by indirect calorimetry. On the 21st day of both the prevention and reversal studies, rats were placed into metabolic cages and energy expenditure was assessed by determining oxygen consumption. The effect of 4-OH on oxygen consumption during the day/night cycle on Day 21 of both the prevention and reversal of obesity studies is shown in FIGS. 27A and 27B. The respiratory quotient (RQ) was calculated in these studies from both the quantity of oxygen consumed and the quantity of carbon dioxide produced while the animals were present in the metabolic chambers. A RQ of 1 is indicative that the animals are burning pure carbohydrate as the energy source.

In the case of `C[C@@H]([C@H](C)O)[C@H](N)C(=O)O` [Compound 14a, (2S,3R,4S)-4-Hydroxyisoleucine], the triglycerides plasma levels ([1]; 100 mg/kg twice daily, p<0.05) was “lower triglycerides plasma levels”, the triglycerides plasma levels ([1]; 100 mg/kg twice daily, p<0.05, listed as 4-OH) was “significantly decreased compared to the respective pair fed groups” and the food consumption ([1]; 100 mg/kg twice daily, first week, vs HFHS control) was “slightly decreased”. For the same compound, the “weight gain after 28 days of treatment” value ([1]; 100 mg/kg twice daily, p<0.05) was “significantly decreased compared to the pair fed group and the HFHS control group”, the “weight gain after 28 days of treatment” value ([1]; chronic 4-OH plus an acute oral administration on Day 29, p<0.05) was “significantly decreased compared to the respective pair-fed group and the HFHS control group” and the “level of phosphorylated ACC in hypothalamus” value [2] was “even more reduced”. The tolerability of treatment ([3]; 50 and 100 mg/kg twice daily oral gavage, one week) was “well tolerated”, the weight gain ([3]; 50 and 100 mg/kg twice daily, first week of treatment) was “moderation of weight gain was observed” and the food consumption ([3]; first week of treatment) was “slight decrease in food consumption”. For the same compound, the food intake [4] was “little effect on food intake”, the body weight gain ([4]; vs vehicle) was “significant decrease of body weight gain” and the “Significance vs controls (P; body weight and body weight gain)” value ([5]; 75 mg/kg, Days 7 to 21) was “P < 0.05”. For the same compound, the “Significance vs controls (P; body weight and body weight gain)” value ([5]; 100 mg/kg, Days 7 to 21) was “P < 0.05”, the “Significance vs controls (P; body weight and body weight gain)” value ([5]; 125 mg/kg, Days 6 to 21) was “P < 0.05” and the body weight plateau ([5]; 150 mg/kg bid) was “approximately 30 gm”. For the same compound, the body weight reduction ([5]; 150 mg/kg bid) was 13 gm, the “visual appearance of animals” value ([5]; 150 mg/kg bid, day 21) was “visually indisingishable from lean mice of the same age” and the “Significance vs controls (P; body weight and body weight gain)” value ([5]; 150 mg/kg, Days 5 to 21) was “P < 0.05”. The body weight ([5]; 50, 75, 100, 125 and 150 mg/kg bid, oral, fixed dose, 21 days) was “dose-dependent reduction in body weight”, the “weight of fat tissues” value ([5]; end of treatment, epididymal fat (FIG. 17C)) was “concomitant reduction in the weight of fat tissues” and the food intake ([5]; highest doses, each of the 3 weeks, p<0.05) was “reduction in food intake at the highest doses administered”. The “respiratory quotient, night phase” value ([6]; 100 mg/kg twice per day) was “not reduced”, the “oxygen consumption per kg of body weight, night phase” value ([6]; 100 mg/kg twice per day, Day 21) was “significantly enhanced relative to both the pair fed and control groups of animals” and the “oxygen consumption (VO2), light phase” value ([6]; 100 mg/kg twice per day, Day 21, prevention and reversal studies) was “essentially identical”. The “respiratory quotient (fuel source), day phase” value ([6]; 100 mg/kg twice per day, vs pair fed animals) was “burn proportionally more fat than pair fed animals”, the “VO2 expressed per rat” value ([6]; 100 mg/kg twice per day, vs pair fed control groups) was “greater” and the “respiratory quotient (fuel source), day phase” value ([6]; reversal study, vs pair fed and vehicle treated animals) was “proportionally more fat than both the pair fed and vehicle treated animals”.
